The text below walks through data of patent publication US20020141966A1, “Compositions for treatment of malignant effusions, and methods of making and using the same” (priority 2000, published 2002).

In assay [1] the test system is human colon carcinoma cell line HT29. Put plainly: Survival study in HT29 colon cancer xenograft mouse model. It counts as in vivo, SCID mice. To be noted: Paclitaxel 40 mg/kg, IP on day 4 post tumor cell implantation. Here is the method: PACLIMER was provided as in powder and suspended in the vehicle (0.1% Tween80 in normal saline) just before administration. Paclitaxel was purchased from Bristol-Myers Squib Co., which was provided as a solution at a concentration of 6 mg/ml. The paclitaxel solution was diluted to 1 mg/ml with 0.9% sodium chloride just before use.
The human colon carcinoma cell line HT29 was used to set up the colon cancer xenograft mouse model. SCID mice were injected i.p. with 10 million cells. This generally results in death from the tumor metastasis and ascites around 30 days after tumor implantation. HT29 cells growing as a monolayer were harvested with trypsin and washed with PBS. The packed cells were resuspended in PBS (10 million cells per ml PBS). 48 SCID mice (C.B.17/Icr SCID, 8-10 weeks of age) were injected i.p. with 1 ml of the HT29 cell suspension (10 million cells for each mouse). 4 days after tumor implantation, the animals were grouped randomly. […]
For the ascites study, PACLIMER was to be given when obvious ascites was found in the mice. […] On 1, 5, and 10 days after treatment, 4 mice in each group was sacrificed at each time point and the ascites volumes were measured. […]

Assay [2] relates to malignant effusions associated with non-small cell lung cancer. To be noted: cited from earlier work.
Where [3] appears, read: single 125 mg/m2 dose diluted in saline, intracavitary.

For `CC(=O)O[C@H]1C(=O)[C@@]2(C)[C@H]([C@H](OC(=O)c3ccccc3)[C@]3(O)C[C@H](OC(=O)[C@H](O)[C@@H](NC(=O)c4ccccc4)c4ccccc4)C(C)=C1C3(C)C)[C@]1(OC(C)=O)CO[C@@H]1C[C@@H]2O` [Paclitaxel, paclitaxel], in assay [1], the “Median Survival” value worked out at 44 days. In addition, in assay [2] (setting [3]), the complete response rate is listed as 28.6% and the total response rate was 92.9%. The “patients with total tumor mass reduced by more than 50%” value in assay [2] (single 125 mg/m2 dose, following the treatment) is on record as “one patient out of fourteen”.
